{"source": "patent US10188743B2", "about": "“Cytisine-linked isoflavonoid antineoplastic agents for the treatment of cancer” (UNIVERSITY OF KENTUCKY RESEARCH FOUNDATION, priority 2016, dated 2019)", "key": {"S6": {"system": "S6", "experiment": "S6 phosphorylation, mTor pathway (Western blotting)", "type": "cell-based", "conditions": "PC-3 and LS174T cells", "description": "(§1) Biochemistry. Western blotting: Cells were lysed in the appropriate volume of lysis buffer (50 mM HEPES, 100 mM NaCl, 2 mM EDTA, 1% glycerol, 50 mM NaF, 1 mM Na3VO4, 1% Triton X-100, with protease inhibitors). The following antibodies were used: HSD17B4 (GeneTex, GTX103864), AMPK (Cell Signaling, 2532), pAMPK (Cell Signaling, 2535), ACC (Cell Signaling, 3676), pACC (Cell Signaling, 11818), p^70 (Cell Signaling, 2708), p-p^70 (Cell Signaling, 9914), S6 (Cell Signaling, 2217), pS6 (Cell Signaling, 4858), MCCA (GeneTex, GTX110062), tubulin (Hybridoma Bank, E7), Actin (Sigma, A1978), His-tag (BD Pharmingen, 552564)."}, "LS174T cancer cells": {"system": "LS174T cancer cells", "experiment": "Acetyl-CoA analysis of treated cells", "type": "cell-based", "description": "Cell Metabolism. Acetyl-CoA analysis: Cells grown in 6 cm plates were treated with DMSO or inhibitors, and harvested in lysis buffer (20 mM Tris pH 7.5, 150 mM NaCl, 1 mM EDTA, 1 mM EGTA, 1% Triton X-100, 2.5 mM sodium pyrophosphate, 1 mM Na3VO4, 1 ug/mL Leupeptin, 1 mM PMSF and 1:100 Protease inhibitor cocktail). Supernatants were analyzed using PicoProbe Acetyl CoA kit (Abcam, ab87546)."}, "[1]": {"system": "PC-3 prostate cancer cells", "experiment": "Seahorse XF assay", "type": "cell-based", "conditions": "PC-3 cells", "source_text": "(§2) We further characterized the effects of cytisine-linked isoflavonoid 10c on energy metabolism using a Seahorse XF assay (FIG. 4D-F) that measured oxygen consumption rate (OCR), which was an indicator of mitochondrial respiration, and measured extracellular acidification rate (ECAR), which was largely the result of glycolysis. […] Similar results were found in DLD-1 colon cancer cells and PC-3 prostate cancer cells (FIGS. 8 and 9). These OCR findings were consistent with the prior evaluation of these cytisine-linked isoflavonoids that targeted the hydratase activity in HSD17B4, inhibited VLCFA beta-oxidation, depressed acetyl CoA generation, decreased the ratio of ATP/AMP, and triggered AMPK activation (FIG. 5).\n(§3) Seahorse assay: 3×10^4 cells were seeded in XF96 Cell Culture microplate (80 μL of 3.75×10^5 cells/m:). On the next day, cells were treated with DMSO or inhibitors and analyzed using the Seahorse analyzer in Redox Metabolism Shared Resource Facility (RM SRF) at the Markey Cancer Center."}, "DLD1 colon cancer cells": {"system": "DLD1 colon cancer cells", "experiment": "Seahorse XF assay", "type": "cell-based", "source_text": "as §2, §3"}, "[2]": {"biological_target": "T1, α,β-dehydrogenase activity of HSD17B4 (Homo sapiens, UniProt P51659)", "T1 construct": "His-tag; made in house; host or cells: E. coli BL21 (pET28)", "T1 sequence (P51659 1-736)": "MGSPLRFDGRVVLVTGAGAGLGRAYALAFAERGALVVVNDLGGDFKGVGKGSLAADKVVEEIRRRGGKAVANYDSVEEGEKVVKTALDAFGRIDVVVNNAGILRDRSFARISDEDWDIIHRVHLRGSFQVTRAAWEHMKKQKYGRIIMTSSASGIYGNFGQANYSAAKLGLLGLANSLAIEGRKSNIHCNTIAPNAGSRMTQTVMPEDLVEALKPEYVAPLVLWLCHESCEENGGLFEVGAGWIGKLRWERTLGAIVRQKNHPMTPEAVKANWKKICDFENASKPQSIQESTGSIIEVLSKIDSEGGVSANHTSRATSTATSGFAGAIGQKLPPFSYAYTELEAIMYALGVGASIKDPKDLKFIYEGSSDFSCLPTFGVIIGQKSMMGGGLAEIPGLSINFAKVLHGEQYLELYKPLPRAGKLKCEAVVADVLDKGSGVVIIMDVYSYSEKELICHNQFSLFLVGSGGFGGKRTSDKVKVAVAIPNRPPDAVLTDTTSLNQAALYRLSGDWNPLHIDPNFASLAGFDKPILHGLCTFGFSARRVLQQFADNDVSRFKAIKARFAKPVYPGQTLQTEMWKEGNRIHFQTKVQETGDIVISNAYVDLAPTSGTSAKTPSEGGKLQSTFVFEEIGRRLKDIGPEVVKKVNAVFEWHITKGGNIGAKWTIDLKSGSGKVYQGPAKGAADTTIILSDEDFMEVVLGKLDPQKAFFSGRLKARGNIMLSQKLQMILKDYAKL", "experiment": "HSD17B4 dehydrogenase assay (NADH readout)", "type": "biochemical", "source_text": "We acquired further evidence along these lines through studies using the N-terminal α,β-dehydrogenase and C-terminal hydratase fragments of HSD17B4 as well as the full-length protein. We evaluated the α,β-dehydrogenase activity using DL-3-hydroxylbutyryl-CoA as a substrate and the conversion of NAD^+ to NADH as a readout. We concomitantly measured the hydratase activity using crotonoyl-CoA as a substrate and the diminished ultraviolet absorption of the α,β-unsaturated thioester chromophore as readout. The full-length protein, as expected, had both enzyme activities (FIGS. 7A and 7B). The C-terminal-truncated fragments N318 and N634 but not the N-terminal-truncation fragment C919 had α,β-dehydrogenase activity (FIG. 7A). The C-terminal fragment N634 and the N-terminal fragment C919, but not the C-terminal fragment N318, had hydratase activity (FIG. 7B), as summarized in FIG. 3A.\nThe enzymatic activities of HSD17B4 were analyzed using the method reported by Novikov et al. (J. Biol. Chem., 1994, 269, 27125). […] The reaction was quantified by measuring the fluorescent product NADH (excitation: 340 nm; emission 460 nm). […] The reaction was quantified by measuring the remaining substrate using absorbance at 280 nm."}, "[3]": {"system": "acetyl CoA carboxylase (ACC)", "experiment": "ACC phosphorylation / activation downstream of AMPK (Western blotting)", "type": "cell-based", "conditions": "PC-3 and LS174T cells", "description": "as §1"}, "[4]": {"system": "LS174T colon cancer cells", "experiment": "Fatty acid analysis of treated cells", "type": "cell-based", "description": "Fatty acid analysis: Free and total fatty acids (after saponification) were prepared as reported previously (Spencer et al. Diabetes 62(5):1709-1717) converted to N-(4-aminomethylphenyl)pyridinium derivatives (Bollinger et al. J Lipid Res 54(12):3523-3530) and quantitated HPLC electrospray ionization tandem mass spectrometry with quantitation accomplished using exogenously added heptadecanoic acid as a recovery standard and reference to offline calibrations generated using authentic fatty acid standards."}}}
{"compound": "O=c1c(-c2ccc(Cl)cc2)coc2cc(OCCN3C[C@@H]4C[C@@H](C3)c3cccc(=O)n3C4)ccc12", "note": "[Compound 10c, (1 S,5S)-3-(2-((3-(4-chlorophenyl)-4-oxo-4H-chromen-7-yl)oxy)ethyl)-3,4,5,6-tetrahydro-1H-1,5-methanopyrido[1,2-a][1,5]diazocin-8(2H)-one]", "values": [{"measurement": "phosphorylation of S6", "setting": "S6", "value": "inhibited the phosphorylation"}, {"measurement": "level of acetyl CoA", "setting": "LS174T cancer cells", "value": "decreased the levels"}, {"measurement": "respiration rate", "setting": "[1]", "value": "reduced respiration rate"}, {"measurement": "ATP production", "setting": "DLD1 colon cancer cells", "value": "reduced"}, {"measurement": "respiration rate", "setting": "DLD1 colon cancer cells", "value": "reduced respiration rate"}, {"measurement": "effect on α,β-dehydrogenase activity", "setting": "[2]", "value": "no effect"}, {"measurement": "ACC phosphorylation", "setting": "[3]", "value": "induced appreciable ACC phosphorylation"}, {"measurement": "fatty acid levels", "setting": "[4]", "value": "reduced the levels of a number of fatty acids"}]}
